Experimental data from ChEMBL document CHEMBL1821714, “Discovery, synthesis and SAR of azinyl- and azolylbenzamides antagonists of the P2X₇ receptor” (Bioorg Med Chem Lett, 2011).
Blank lines part the entries; values can stand above or below the compound they belong to.

Columns and labels:
[1] = molecular target: T1, P2X purinoceptor 7 (Homo sapiens) (UniProt Q99572); experiment: Antagonist activity at P2X7R expressed in LPS-activated human monocytes assessed as inhibition of ATP-induced IL1-beta release at 1 uM in presence of low serum concentration; assay type: functional, cell-based
T1 sequence (whole entry): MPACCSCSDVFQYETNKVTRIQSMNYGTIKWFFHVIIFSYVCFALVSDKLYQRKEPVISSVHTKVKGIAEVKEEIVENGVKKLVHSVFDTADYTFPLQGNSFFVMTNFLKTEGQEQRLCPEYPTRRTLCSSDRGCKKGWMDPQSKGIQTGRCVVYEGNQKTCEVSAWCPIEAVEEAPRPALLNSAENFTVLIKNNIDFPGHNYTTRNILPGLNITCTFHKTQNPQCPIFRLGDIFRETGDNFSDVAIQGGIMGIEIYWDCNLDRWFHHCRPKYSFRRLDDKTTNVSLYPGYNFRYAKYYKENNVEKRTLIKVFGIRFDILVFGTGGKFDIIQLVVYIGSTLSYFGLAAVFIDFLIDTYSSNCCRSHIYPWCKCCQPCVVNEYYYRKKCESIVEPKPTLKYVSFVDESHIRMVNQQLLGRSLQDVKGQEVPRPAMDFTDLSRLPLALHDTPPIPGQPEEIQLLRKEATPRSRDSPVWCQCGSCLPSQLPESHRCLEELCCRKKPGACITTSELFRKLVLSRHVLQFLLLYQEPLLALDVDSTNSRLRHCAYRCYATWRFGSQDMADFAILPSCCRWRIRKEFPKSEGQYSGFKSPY

[2] = molecular target: T2, P2X purinoceptor 7 (Homo sapiens, UniProt Q99572); experiment: Antagonist activity at P2X7R expressed in LPS-activated human monocytes assessed as inhibition of ATP-induced IL1-beta release in presence of low serum concentration; assay type: functional, cell-based
T2 sequence (Q99572 whole entry): T1 sequence (whole entry)

[3] = molecular target: T2, P2X purinoceptor 7; experiment: Antagonist activity at P2X7R expressed in HEK293 cells assessed as inhibition of ATP-induced YO-PRO-1 uptake; assay type: functional, cell-based
[4] = Half life in human liver microsomes
[5] = molecular target: T2, P2X purinoceptor 7; experiment: Antagonist activity at P2X7R expressed in LPS-stimulated human whole blood assessed as inhibition of ATP-induced IL1-beta release; assay type: functional, tissue-based
[6] = Lipophilicity, log P of the compound; assay type: physicochemical; conditions: octanol/water
[7] = system: MDCK; experiment: Permeability from apical to basolateral side of dog MDCK cells expressing MDR1; assay type: ADME, cell-based, Canis lupus familiaris
[8] = system: MDCK; experiment: Permeability from basolateral to apical side of dog MDCK cells expressing MDR1; assay type: ADME, cell-based, Canis lupus familiaris
[9] = Permeability from apical to basolateral side of human Caco2 cells; assay type: ADME, cell-based; conditions: Caco-2, read-out: permeability
[10] = system: MDCK; experiment: Ratio of permeability from basolateral to apical over apical to basolateral side in dog MDCK cells expressing MDR1; assay type: ADME, cell-based, Canis lupus familiaris
[11] = Distribution coefficient, log D of the compound; assay type: physicochemical; conditions: octanol/water
[12] = Half life in iv dosed rat; conditions: in vivo
[13] = Oral bioavailability in rat; conditions: in vivo
[14] = Volume of distribution at steady state in iv dosed rat; conditions: in vivo

inhibition [1]: 0%
SMILES: CC(=O)c1ccc(-c2ccc(Cl)c(C(=O)NCCc3ccccc3Cl)c2)nc1

IC50 [2]: 250 nM
SMILES: Cc1ccc(-c2ccc(Cl)c(C(=O)NCCc3ccccc3Cl)c2)nn1

SMILES: Cc1nc(-c2ccc(Cl)c(C(=O)NCC3(O)CCCCCC3)c2)cs1
IC50 [3]: 6 nM

IC50 [2]: 5200 nM
SMILES: O=C(NCCc1ccccc1Cl)c1cc(-c2ccncc2)ccc1Cl

IC50 [2]: > 1000 nM
IC50 [3]: 266 nM
SMILES: Cn1nccc1-c1ccc(Cl)c(C(=O)NCC2(O)CCCCCC2)c1

IC50 [2]: 490 nM
SMILES: COc1ccc(-c2ccc(Cl)c(C(=O)NCCc3ccccc3Cl)c2)nn1

IC50 [2]: 720 nM
SMILES: NC(=O)c1ccc(-c2ccc(Cl)c(C(=O)NCCc3ccccc3Cl)c2)nc1

IC50 [3]: 180 nM
SMILES: O=C(NCC1(O)CCCCCC1)c1cc(-c2ccc(=O)[nH]n2)ccc1Cl

half-life ([4]; liver microsomes): 0.2 h
IC50 [3]: 12 nM
IC50 [5]: 610 nM
SMILES: O=C(NCC1(O)CCCCCC1)c1cc(-c2cc[nH]n2)ccc1Cl

inhibition [1]: 0%
SMILES: N#Cc1ccc(-c2ccc(Cl)c(C(=O)NCCc3ccccc3Cl)c2)nc1

half-life ([4]; liver microsomes): 1.28 h
IC50 [3]: 28 nM
IC50 [5]: 510 nM
SMILES: COc1ccc(-c2ccc(Cl)c(C(=O)NCC3(O)CCCCCC3)c2)nn1

IC50 [2]: 460 nM
SMILES: O=C(NCCc1ccccc1Cl)c1cc(-c2ccc(Cl)cn2)ccc1Cl

logP [6]: 2.6
half-life ([4]; liver microsomes): > 2 h
permeability [7]: 0.26 ×10⁻⁶ cm/s
IC50 [2]: 7 nM
IC50 [3]: 3 nM
permeability [8]: 2.2 ×10⁻⁶ cm/s
Papp A→B [9]: 10.5 ×10⁻⁶ cm/s
Ratio [10]: 10.5
IC50 [5]: 10 nM
logD [11]: 1.6
SMILES: Cc1cc(-c2ccc(Cl)c(C(=O)NCC3(O)CCCCCC3)c2)nn1C[C@H](O)CN.Cl

half-life ([4]; liver microsomes): 0.0617 h
IC50 [2]: 238 nM
IC50 [5]: 440 nM
SMILES: Cn1ccc(-c2ccc(Cl)c(C(=O)NCC3(O)CCCCCC3)c2)n1

logP [6]: 2.6
half-life [12]: 8.36 h
half-life ([4]; liver microsomes): > 2 h
permeability [7]: 0.26 ×10⁻⁶ cm/s
IC50 [2]: 2 nM
bioavailability [13]: 9%
IC50 [3]: 0.5 nM
permeability [8]: 2.39 ×10⁻⁶ cm/s
Papp A→B [9]: 2.98 ×10⁻⁶ cm/s
Ratio [10]: 11.5
IC50 [5]: 3 nM
Vd [14]: 11.7 L/kg
logD [11]: 1.6
SMILES: Cc1cc(-c2ccc(Cl)c(C(=O)NCC3(O)CCCCCC3)c2)nn1C[C@@H](O)CN.Cl

IC50 [2]: 1.3 nM
SMILES: COC[C@H](O)Cn1c(=O)cnn(-c2ccc(Cl)c(C(=O)NCC3(O)CCCCCC3)c2)c1=O [CE-224535]

half-life ([4]; microsomes): 0.372 h
IC50 [2]: 240 nM
SMILES: O=C(NCC1(O)CCCCCC1)c1cc(-c2cnoc2)ccc1Cl

IC50 [2]: 1050 nM
SMILES: O=C(NCCc1ccccc1Cl)c1cc(-c2n[nH]c(=O)[nH]c2=O)ccc1Cl

half-life ([4]; liver microsomes): 1.42 h
IC50 [2]: 510 nM
SMILES: O=C(NCC1(O)CCCCCC1)c1cc(-c2c[nH]cn2)ccc1Cl

IC50 [2]: 668 nM
SMILES: CC(O)c1ccc(-c2ccc(Cl)c(C(=O)NCCc3ccccc3Cl)c2)nc1 (stereo not drawn)

IC50 [2]: 4800 nM
SMILES: O=C(NCCc1ccccc1Cl)c1cc(-c2cccnc2)ccc1Cl

inhibition [1]: 0%
SMILES: Cc1cccnc1-c1ccc(Cl)c(C(=O)NCCc2ccccc2Cl)c1

IC50 [2]: 4600 nM
SMILES: O=C(NCCc1ccccc1Cl)c1cc(-c2ccc(C(F)(F)F)cn2)ccc1Cl

inhibition [1]: 0%
SMILES: Cc1ccnc(-c2ccc(Cl)c(C(=O)NCCc3ccccc3Cl)c2)c1

IC50 [2]: 110 nM
SMILES: Cc1ccc(-c2ccc(Cl)c(C(=O)NCCc3ccccc3Cl)c2)nc1

IC50 [2]: 820 nM
SMILES: CCCCC(CC)CNC(=O)c1cc(-n2ncc(=O)[nH]c2=O)ccc1Cl (stereo not drawn)

IC50 [2]: 1600 nM
SMILES: O=C(NCCc1ccccc1Cl)c1cc(-c2ccccn2)ccc1Cl

inhibition [1]: 0%
SMILES: Cc1cccc(-c2ccc(Cl)c(C(=O)NCCc3ccccc3Cl)c2)n1
